Data taken from US20220202905A1, “COMPOSITION FOR PREVENTING OR TREATING NEUROTROPHIC KERATITIS WHICH CONTAINS PACAP PEPTIDE OR STABILIZED PACAP PEPTIDE” (SENJU PHARMACEUTICAL CO., LTD., priority 2019, published 2022).
Square brackets hold non-standard residues; d marks the D form. Peptide text beside a SMILES is read from it. Ala(1H-tetrazol-5-yl) = N[C@@H](Cc1nnn[nH]1)C(=O)O

Experiments:
[1] = system: neurotrophic keratitis rat model; assay: Corneal nerve staining, nerve density in neurotrophic keratitis rat model; assay type: in vivo; conditions: 0.1% eye drops, capsaicin-treated rats; method and result in present tense
Method: (§1) A rat model was prepared, by subcutaneous administration of capsaicin in the dorsal region of rats, which elicited corneal nerve injury and attenuated corneal sensation while also leading to decreased lacrimal fluid volume and superficial punctate keratitis (SPK) (NPL 3: Investigative Ophthalmology & Visual Science (2012), vol. 53, No. 13, p. 8280-8287). The rats were given PACAP27 and its stabilized peptide eye drops, and the inhibiting effect on corneal damage was examined. The specific experiment method was as follows.
(§2) Capsaicin (product of Sigma) was dissolved in PBS containing 10% EtOH and 10% Tween80, and subcutaneously administered to the dorsal region of 4-day-old male Wistar/ST rats at a dose of 50 mg/kg·b·w.
The base was prepared by dissolving 0.3 g of trishydroxymethylaminomethane (Nacalai Tesque, Inc.) and 4.4 g of D(−)-mannitol (Nacalai Tesque, Inc.) in 100 mL of sterilized water, adding 1 N·HCl and adjusting the pH to 7. […] Each eye drops was stored at room temperature. […]
After euthanizing rats, the eye bulbs are extracted and immersed in Zamboni solution (product of Wako Pure Chemical Industries, Ltd.), and allowed to stand for 15 minutes at room temperature. […] The nerve density of the swirl structure in the nerve layer is quantified by conducting Sholl analysis using image analysis software (Image J).

[2] = system: neurotrophic keratitis rat model; assay: Superficial punctate keratitis (SPK) score in neurotrophic keratitis rat model; assay type: in vivo; conditions: 0.1% eye drops 3 times daily, evaluated 2 weeks after start of eye dropping; FIG. 4
Method: as §1
Capsaicin (product of Sigma) was dissolved in PBS containing 10% EtOH and 10% Tween80, and subcutaneously administered to the dorsal region of 4-day-old male Wistar/ST rats at a dose of 50 mg/kg·b·w. […]
SPK was evaluated 2 weeks after the start of eye dropping. […] The eye surface was then observed with a slit lamp microscope, and the degree of corneal damage was evaluated by the method of Murakami et al., Atarashii Ganka 21 (1):87-90 (2004). Specifically, the cornea was divided into 3 regions, the top, center and bottom, and a score was assigned to each region on the following scale, with the value of the total of the scores of the 3 regions being recorded as the SPK score. <Scale> 0: No punctate stains, 1: Sparse (separated punctate fluorescein stains), 2: Intermediate (between 1 and 3), 3: Dense (almost all punctate fluorescein stains adjacent).

[3] = system: rat trigeminal nerve cells; assay: Axon elongation effect on cultured rat trigeminal nerve cells; assay type: cell-based; conditions: 1 μM peptide, 24 hours; N=8; Dunnett's test vs control P<0.001; FIG. 5
Method: Rats (Sic: Sprague-Dawley, 17-day-old, including female and male) purchased from Japan SLC, Inc. were euthanized by carbon dioxide gas inhalation and the trigeminal ganglion was harvested. The harvested trigeminal ganglion was washed with Hanks' balanced salt solution (HBSS) and then treated with collagenase A (Roche) for 30 minutes at 37° C. A neuron dispersion (Wako) was then used according to protocol for dispersion of the cells. Debris removal solution (Miltenyi biotec) and Myelin removal beads II (Miltenyi biotec) were used according to protocol to remove the debris and myelin. After suspending the isolated trigeminal nerve cells in culture solution, they were seeded onto a polylysine/laminin-coated 8-well chamber slide (Corning) at 2.5×10^3 cells/well. The culture solution used was Neurobasal-A containing B27 supplement (final concentration: 2%) and GlutaMAX (final concentration: 2 mM) and penicillin/streptomycin (final concentration: 1%). The culturing conditions were a carbon dioxide concentration of 5%, an air concentration of 95%, a humidity of 100% and a temperature of 37° C. […] The control was replaced with peptide-free culture solution. Culture medium replacement was followed by further culturing for 24 hours.
The culture medium was replaced with peptide-containing culture solution, and the rat trigeminal nerve cells cultured for 24 hours were immersed in a 2% paraformaldehyde solution at room temperature for 20 minutes for fixing. The cells were washed with PBS, and then 2% bovine serum albumin containing 0.1% TritonX-100 was added and reaction was conducted for 30 minutes. After washing with PBS, it was reacted with phospho-neurofilament H antibody (Merck, MAB1592-C) specifically recognizing neurofilaments forming the neuron bodies and neurites, for 1 hour at room temperature. After reaction for 1 hour, a fluorescent-labeled secondary antibody (Invitrogen Corp., #A-11031) was reacted at room temperature for 1 hour for fluorescent staining of the sample, and the stained cells were observed under a fluorescent microscope. The stained cell image was captured as an image from the fluorescent microscope and loaded into a computer.
In order to evaluate the extent of neurite formation by the rat trigeminal nerve cells, cells with neurites having lengths of at least twice the cell body diameter in the stained cell image in the computer were counted as neurite-forming cells, and the percentage (%) of this number of cells over the total cell count was calculated (Otori Y. Wei J Y, Barnstable C J. Invest. Ophthalmol Vis Sci (1998) 39, 972-981). The significant difference with respect to the control was determined by Dunnett's test (P<0.001).

[4] = system: neurotrophic keratitis rat model; assay: Corneal sensation (Cochet-Bonnet) in neurotrophic keratitis rat model; assay type: in vivo; conditions: 0.1% eye drops, capsaicin-treated rats; method and result in present tense
Method: as §1, §2
The base was prepared by dissolving 0.3 g of trishydroxymethylaminomethane (Nacalai Tesque, Inc.) and 4.4 g of D(−)-mannitol (Nacalai Tesque, Inc.) in 100 mL of sterilized water, adding 1 N·HCl and adjusting the pH to 7. […] Each eye drops was stored at room temperature. Each eye drop was initially administered 3 weeks after administration of capsaicin, 3 times every day, in an amount of 10 μL for each eye.
Corneal sensation is measured using a Cochet-Bonnet corneal sensory meter (Handaya Shoten). […] This procedure is repeated 3 times, and the average value for the obtained filament lengths is recorded as the corneal sensation threshold (CST) for that individual.

| Compound | corneal nerve density (Sholl analysis) [1] | SPK score [2] | axon elongation (percentage of neurite-forming cells) [3] | corneal sensation threshold (CST) [4] |
| --- | --- | --- | --- | --- |
| CC[C@H](C)[C@H](NC(=O)CNC(=O)[C@H](Cc1nnn[nH]1)NC(=O)[C@H](CO)NC(=O)[C@H](Cc1c[nH]cn1)NC(C)=O)C(=O)N[C@@H](Cc1ccccc1)C(=O)N[C@H](C(=O)N[C@@H](Cc1nnn[nH]1)C(=O)N[C@@H](CO)C(=O)N[C@@H](Cc1ccc(O)cc1)C(=O)N[C@@H](CO)C(=O)N[C@@H](CCCNC(=N)N)C(=O)N[C@@H](Cc1ccc(O)cc1)C(=O)N[C@@H](CCCNC(=N)N)C(=O)N[C@@H](CCCCN)C(=O)N[C@@H](CCC(N)=O)C(=O)N[C@@H](CC(C)C)C(=O)N[C@@H](C)C(=O)N[C@H](C(=O)N[C@@H](CCCCN)C(=O)N[C@@H](CCCCN)C(=O)N[C@@H](Cc1ccc(O)cc1)C(=O)N[C@@H](CC(C)C)C(=O)N[C@@H](C)C(=O)N[C@@H](C)C(=O)N[C@H](C(=O)N[C@@H](CC(C)C)C(N)=O)C(C)C)C(C)C)[C@@H](C)O [Peptide 9] (Ac-HS[Ala(1H-tetrazol-5-yl)]GIFT[Ala(1H-tetrazol-5-yl)]SYSRYRKQLAVKKYLAAVL-NH2) | improves reduction in nerve density | improved the increased SPK score | exhibited axon elongation-promoting effects | improves reduction in corneal sensation |
| CC[C@H](C)[C@H](NC(=O)CNC(=O)[C@H](CC(=O)O)NC(=O)[C@H](CO)NC(=O)[C@@H](N)Cc1cnc[nH]1)C(=O)N[C@@H](Cc1ccccc1)C(=O)N[C@H](C(=O)N[C@@H](CC(=O)O)C(=O)N[C@@H](CO)C(=O)N[C@@H](Cc1ccc(O)cc1)C(=O)N[C@@H](CO)C(=O)N[C@@H](CCCNC(=N)N)C(=O)N[C@@H](Cc1ccc(O)cc1)C(=O)N[C@@H](CCCNC(=N)N)C(=O)N[C@@H](CCCCN)C(=O)N[C@@H](CCC(N)=O)C(=O)N[C@@H](CCSC)C(=O)N[C@@H](C)C(=O)N[C@H](C(=O)N[C@@H](CCCCN)C(=O)N[C@@H](CCCCN)C(=O)N[C@@H](Cc1ccc(O)cc1)C(=O)N[C@@H](CC(C)C)C(=O)N[C@@H](C)C(=O)N[C@@H](C)C(=O)N[C@H](C(=O)N[C@@H](CC(C)C)C(N)=O)C(C)C)C(C)C)[C@@H](C)O [Peptide 1, reference compound] | improves reduction in nerve density | improved the increased SPK score | exhibited axon elongation-promoting effects | improves reduction in corneal sensation |
